Experimental data as given in ChEMBL document CHEMBL1687743, “Intravenous doripenem at 500 milligrams versus levofloxacin at 250 milligrams, with an option to switch to oral therapy, for treatment of complicated lower urinary tract infection and pyelonephritis” (Antimicrob Agents Chemother, 2009).

Assays:
Homo sapiens [1] = test: Treatment emergent adverse event in intent-to-treat patient with complicated urinary tract infection assessed as vomiting at 250 […], iv qd for 10 days; type: ADME, organism-based, Urine; design: route intravenous; conditions: in vivo, 240 h
Enterococcus faecalis = test: Antibacterial activity against levofloxacin-resistant Enterococcus faecalis
Homo sapiens [2] = test: Drug related treatment emergent adverse event in intent-to-treat patient with complicated urinary tract infection assessed as diarrhea at 250 […], iv qd for 10 days; type: toxicity, organism-based; design: dose 250 […], route intravenous; conditions: in vivo, 240 h
Homo sapiens [3] = test: Drug related treatment emergent adverse event in intent-to-treat patient with complicated urinary tract infection assessed as upper abdominal pain at 250 […], iv qd for 10 days; type: toxicity, organism-based; design: dose 250 […], route intravenous; conditions: in vivo, 240 h
Homo sapiens [4] = test: Drug related treatment emergent adverse event in intent-to-treat patient with complicated urinary tract infection assessed as >=1 adverse event at 250 […], iv qd for 10 days; type: toxicity, organism-based; design: dose 250 mg/kg, route intravenous; conditions: in vivo, 240 h
Escherichia coli [5] = test: Antibacterial activity against levofloxacin-resistant Escherichia coli; type: functional
Homo sapiens [6] = test: Treatment emergent adverse event in intent-to-treat patient with complicated urinary tract infection assessed as back pain at 250 […], iv qd for 10 days; type: organism-based; design: route intravenous; conditions: in vivo, 240 h
Homo sapiens [7] = test: Treatment emergent adverse event in intent-to-treat patient with complicated urinary tract infection assessed as urinary tract infection at 250 […], iv qd for 10 days; type: ADME, organism-based; design: route intravenous; conditions: in vivo, 240 h
Escherichia coli [8] = test: Antibacterial activity against levofloxacin-resistant Escherichia coli infected in microbiologically evaluable patient with UTI assessed as cure rate at 250 mg, iv qd for 10 days measured at test-of-cure visit; type: functional
Homo sapiens [9] = test: Drug related treatment emergent adverse event in intent-to-treat patient with complicated urinary tract infection assessed as headache at 250 […], iv qd for 10 days; type: toxicity, organism-based, Urine; design: dose 250 […], route intravenous; conditions: in vivo, 240 h
Proteus mirabilis [10] = test: Antibacterial activity against levofloxacin-resistant Proteus mirabilis; type: functional
Escherichia coli [11] = test: Antibacterial activity against Escherichia coli infected in microbiologically evaluable patient with UTI assessed as cure rate at 250 mg, iv qd for 10 days measured at test-of-cure visit; type: functional
Homo sapiens [12] = test: Treatment emergent adverse event in intent-to-treat patient with complicated urinary tract infection assessed as abdominal pain at 250 […], iv qd for 10 days; type: organism-based; design: route intravenous; conditions: in vivo, 240 h
Homo sapiens [13] = test: Treatment emergent adverse event in intent-to-treat patient with complicated urinary tract infection assessed as asymptomatic bacteriuria at 250 […], iv qd for 10 days; type: organism-based, Urine; design: route intravenous; conditions: in vivo, 240 h
Homo sapiens [14] = test: Treatment emergent adverse event in intent-to-treat patient with complicated urinary tract infection assessed as diarrhea at 250 […], iv qd for 10 days; type: organism-based; design: route intravenous; conditions: in vivo, 240 h
Homo sapiens [15] = test: Treatment emergent adverse event in intent-to-treat patient with complicated urinary tract infection assessed as >=1 adverse event at 250 […], iv qd for 10 days; type: organism-based, Urine; design: dose 250 mg/kg, route intravenous; conditions: in vivo, 240 h
Homo sapiens [16] = test: Treatment emergent adverse event in intent-to-treat patient with complicated urinary tract infection assessed as phlebitis at 250 […], iv qd for 10 days; type: organism-based; design: route intravenous; conditions: in vivo, 240 h
Homo sapiens [17] = test: Drug related treatment emergent adverse event in intent-to-treat patient with complicated urinary tract infection assessed as phlebitis at 250 […], iv qd for 10 days; type: toxicity, organism-based, Urine; design: dose 250 […], route intravenous; conditions: in vivo, 240 h
Homo sapiens [18] = test: Treatment emergent adverse event in intent-to-treat patient with complicated urinary tract infection assessed as headache at 250 […], iv qd for 10 days; type: ADME, organism-based, Urine; design: route intravenous; conditions: in vivo, 240 h
Escherichia coli [19] = test: Antibacterial activity against levofloxacin-resistant Escherichia coli infected in clinically evaluable patient with UTI assessed as cure rate at 250 mg, iv qd for 10 days measured at test-of-cure visit; type: functional
Homo sapiens [20] = test: Treatment emergent adverse event in intent-to-treat patient with complicated urinary tract infection assessed as constipation at 250 […], iv qd for 10 days; type: organism-based; design: route intravenous; conditions: in vivo, 240 h
Homo sapiens [21] = test: Treatment emergent adverse event in intent-to-treat patient with complicated urinary tract infection assessed as insomnia at 250 […], iv qd for 10 days; type: ADME, organism-based, Urine; design: route intravenous; conditions: in vivo, 240 h
Klebsiella pneumoniae [22] = test: Antibacterial activity against Klebsiella pneumoniae isolated from patient with urinary tract infection receiving drug at 250 mg, iv qd for 10 days measured after post drug therapy; type: functional; conditions: Urine, 240 h
Homo sapiens [23] = test: Drug related treatment emergent adverse event in intent-to-treat patient with complicated urinary tract infection assessed as nausea at 250 […], iv qd for 10 days; type: toxicity, organism-based, Urine; design: dose 250 […], route intravenous; conditions: in vivo, 240 h
Proteus mirabilis [24] = test: Antibacterial activity against Proteus mirabilis infected in microbiologically evaluable patient with UTI assessed as cure rate at 250 mg, iv qd for 10 days measured at test-of-cure visit; type: functional
Homo sapiens [25] = test: Treatment emergent adverse event in intent-to-treat patient with complicated urinary tract infection assessed as nausea at 250 […], iv qd for 10 days; type: ADME, organism-based, Urine; design: route intravenous; conditions: in vivo, 240 h
Homo sapiens [26] = test: Treatment emergent adverse event in intent-to-treat patient with complicated urinary tract infection assessed as hypokalemia at 250 […], iv qd for 10 days; type: ADME, organism-based, Urine; design: route intravenous; conditions: in vivo, 240 h
Pseudomonas aeruginosa [27] = test: Antibacterial activity against Pseudomonas aeruginosa isolated from patient with urinary tract infection receiving drug at 250 mg, iv qd for 10 days measured after post drug therapy; type: functional; conditions: Urine, 240 h
Escherichia coli [28] = test: Antibacterial activity against Escherichia coli isolated from patient with urinary tract infection receiving drug at 250 mg, iv qd for 10 days measured after post drug therapy; type: functional; conditions: Urine, 240 h
Proteus mirabilis [29] = test: Antibacterial activity against Proteus mirabilis isolated from patient with urinary tract infection receiving drug at 250 mg, iv qd for 10 days measured after post drug therapy; type: functional; conditions: Urine, 240 h
Klebsiella pneumoniae [30] = test: Antibacterial activity against Klebsiella pneumoniae infected in microbiologically evaluable patient with UTI assessed as cure rate at 250 mg, iv qd for 10 days measured at test-of-cure visit; type: functional
Pseudomonas aeruginosa [31] = test: Antibacterial activity against levofloxacin-resistant Pseudomonas aeruginosa
Homo sapiens [32] = test: Treatment emergent adverse event in intent-to-treat patient with complicated urinary tract infection assessed as upper abdominal pain at 250 […], iv qd for 10 days; type: ADME, organism-based, Urine; design: route intravenous; conditions: in vivo, 240 h

C[C@H]1COc2c(N3CCN(C)CC3)c(F)cc3c(=O)c(C(=O)O)cn1c23.C[C@H]1COc2c(N3CCN(C)CC3)c(F)cc3c(=O)c(C(=O)O)cn1c23.O [LEVOFLOXACIN] was tested. Which Activity (Homo sapiens [1]) did it give?
The Activity was 4.3%.

What about the MIC (Enterococcus faecalis) of the same molecule?
Its MIC is 16 µg/mL.

And the Activity (Homo sapiens [2])?
Its Activity is 5.9%.

What about the Activity (Homo sapiens [3]) of the same molecule?
The Activity was 2.2%.

What about the Activity (Homo sapiens [4]) of the same molecule?
Its Activity is 25%.

And the MIC (Escherichia coli [5])?
The MIC was 32 µg/mL.

And the Activity (Homo sapiens [6])?
The Activity was 4.6%.

What about the Activity (Homo sapiens [7]) of the same molecule?
The Activity was 1.6%.

What about the Activity (Escherichia coli [8]) of the same molecule?
Its Activity is 29%.

What about the Activity (Homo sapiens [9]) of the same molecule?
Its Activity is 2.7%.

And the MIC (Proteus mirabilis [10])?
Its MIC is 32 µg/mL.

What about the Activity (Escherichia coli [11]) of the same molecule?
The Activity was 87.2%.

And the Activity (Homo sapiens [12])?
Its Activity is 3.5%.

What about the Activity (Homo sapiens [13]) of the same molecule?
The Activity was 1.1%.

And the Activity (Homo sapiens [14])?
Its Activity is 9.9%.

What about the Activity (Homo sapiens [15]) of the same molecule?
Its Activity is 60%.

And the Activity (Homo sapiens [16])?
The Activity was 4%.

What about the Activity (Homo sapiens [17]) of the same molecule?
Its Activity is 3%.

And the Activity (Homo sapiens [18])?
The Activity was 14.5%.

And the Activity (Escherichia coli [19])?
Its Activity is 33%.

And the Activity (Homo sapiens [20])?
Its Activity is 4.8%.

What about the Activity (Homo sapiens [21]) of the same molecule?
The Activity was 3%.

What about the MIC (Klebsiella pneumoniae [22]) of the same molecule?
Its MIC is 2 µg/mL.

What about the Activity (Homo sapiens [23]) of the same molecule?
Its Activity is 1.6%.

What about the Activity (Proteus mirabilis [24]) of the same molecule?
Its Activity is 86.7%.

And the Activity (Homo sapiens [25])?
The Activity was 5.9%.

What about the Activity (Homo sapiens [26]) of the same molecule?
The Activity was 3.5%.

What about the MIC (Pseudomonas aeruginosa [27]) of the same molecule?
Its MIC is 0.25 µg/mL.

And the MIC (Escherichia coli [28])?
The MIC was 0.25 µg/mL.

What about the MIC (Proteus mirabilis [29]) of the same molecule?
The MIC was 0.25 µg/mL.

What about the Activity (Klebsiella pneumoniae [30]) of the same molecule?
Its Activity is 62.5%.

What about the MIC (Pseudomonas aeruginosa [31]) of the same molecule?
The MIC was 32 µg/mL.

And the Activity (Homo sapiens [32])?
Its Activity is 3.5%.
